Results taken from ChEMBL document CHEMBL1201862, “PubChem BioAssay data set” (2004).
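Briefly, cells in 96-well plates were exposed to five compound concentrations for 48 h, and endpoints were estimated by linear interpolation. GI50 = concentration required for 50% inhibition of growth.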 Calls of active or inactive are those of the source. No stated cut-off is given here; in the data, active = GI50 up to about 1.1 µM and inactive = higher.

Legend:
Assay in all cases: inhibition of tumour cell growth, NCI panel, 48 h
[1] = tested on: EKVX
[2] = tested on: OVCAR-8
[3] = tested on: LOX IMVI
[4] = tested on: SF-539
[5] = tested on: SK-MEL-28
[6] = tested on: HL-60
[7] = tested on: SF-268
[8] = tested on: HCT-15
[9] = tested on: A549
[10] = tested on: SK-OV-3
[11] = tested on: KM12
[12] = tested on: HOP-62
[13] = tested on: UACC-62
[14] = tested on: U-251
[15] = tested on: RPMI-8226
[16] = tested on: UACC-257
[17] = tested on: SF-295
[18] = tested on: SK-MEL-2

Structure (SMILES)	GI50 [1]	GI50 [2]	GI50 [3]	GI50 [4]	GI50 [5]	GI50 [6]	GI50 [7]	GI50 [8] [µM]	GI50 [9]	GI50 [10]	GI50 [11]	GI50 [12]	GI50 [13]	GI50 [14]	GI50 [15]	GI50 [16]	GI50 [17]	GI50 [18]
COc1ccc(C(=O)CC2=Nc3nnc(CCCCCCCc4nnc5n4C(=O)C(CC(=O)c4ccc(OC)cc4)=N5)n3C2=O)cc1	> 100 µM (inactive)	> 100 µM (inactive)	> 100 µM (inactive)	> 100 µM (inactive)	> 100 µM (inactive)	> 100 µM (inactive)	> 100 µM (inactive)	> 100	> 100 µM (inactive)	> 100 µM (inactive)	> 100 µM (inactive)	> 100 µM (inactive)	> 100 µM (inactive)	> 100 µM (inactive)	> 100 µM (inactive)	> 100 µM (inactive)	> 100 µM (inactive)	–
CCOC(OC1=C(C#N)CCCC1)C(CC)[Se]c1ccccc1 (stereo not given)	24.4 µM (inactive)	16.8 µM (inactive)	9.25 µM (inactive)	14.3 µM (inactive)	23.6 µM (inactive)	10.1 µM (inactive)	12.1 µM (inactive)	16.2	39.4 µM (inactive)	> 100 µM (inactive)	> 100 µM (inactive)	59.7 µM (inactive)	13.7 µM (inactive)	13 µM (inactive)	16.2 µM (inactive)	46.7 µM (inactive)	27.6 µM (inactive)	29.4 µM (inactive)
CCOC(=O)C(=O)CC1=Nc2ccccc2SC(c2cccc(C)c2)C1 (stereo not given)	21.5 µM (inactive)	12.6 µM (inactive)	–	19 µM (inactive)	14.6 µM (inactive)	–	16.8 µM (inactive)	18.2	21.2 µM (inactive)	> 10 µM (inactive)	16.2 µM (inactive)	23.9 µM (inactive)	16.9 µM (inactive)	17.1 µM (inactive)	23.7 µM (inactive)	19 µM (inactive)	–	16.3 µM (inactive)
Cc1ccc(S(=O)(=O)c2c(N)c3nc4ccccc4n3c3nc4ccccc4nc23)cc1	> 100 µM (inactive)	> 100 µM (inactive)	> 100 µM (inactive)	9.27 µM (inactive)	> 100 µM (inactive)	–	> 100 µM (inactive)	> 100	> 100 µM (inactive)	> 100 µM (inactive)	> 100 µM (inactive)	7.59 µM (inactive)	> 100 µM (inactive)	6.75 µM (inactive)	> 100 µM (inactive)	> 100 µM (inactive)	> 100 µM (inactive)	> 100 µM (inactive)
N#CC(C(=O)CCCC(=O)Nc1ccc(Cl)cc1Cl)c1ccccc1 (stereo not given)	> 100 µM (inactive)	> 100 µM (inactive)	> 100 µM (inactive)	> 100 µM (inactive)	> 100 µM (inactive)	> 100 µM (inactive)	> 100 µM (inactive)	> 100	> 100 µM (inactive)	> 100 µM (inactive)	> 100 µM (inactive)	> 100 µM (inactive)	> 100 µM (inactive)	> 100 µM (inactive)	–	> 100 µM (inactive)	> 100 µM (inactive)	> 100 µM (inactive)
COc1cc(C2C(C(=O)Nc3ccc(Cl)c(Cl)c3)=C(C)NC(C)=C2C(=O)Nc2ccc(Cl)c(Cl)c2)ccc1O	10.3 µM (inactive)	13.9 µM (inactive)	11.4 µM (inactive)	10.2 µM (inactive)	13.9 µM (inactive)	4.38 µM (inactive)	11.7 µM (inactive)	–	12.8 µM (inactive)	14.8 µM (inactive)	11.7 µM (inactive)	11 µM (inactive)	–	13.9 µM (inactive)	3.89 µM (inactive)	13.8 µM (inactive)	18.4 µM (inactive)	8.17 µM (inactive)
C/C=C(/CCCCNCCCC)[Si](C)(C)C	12.4 µM (inactive)	15.7 µM (inactive)	14.2 µM (inactive)	14.9 µM (inactive)	15.8 µM (inactive)	6.64 µM (inactive)	12.3 µM (inactive)	14.4	15.3 µM (inactive)	18 µM (inactive)	14.5 µM (inactive)	–	17.6 µM (inactive)	13.5 µM (inactive)	–	15.2 µM (inactive)	15.8 µM (inactive)	18.7 µM (inactive)
Cn1cc(NC(=O)c2cc(NC(=O)Nc3cc(C(=O)Nc4cc(C(=O)NCCC(=N)N)n(C)c4)n(C)c3)cn2C)cc1C(=O)NCCC(=N)N	52.2 µM (inactive)	22.8 µM (inactive)	25.4 µM (inactive)	18 µM (inactive)	25.4 µM (inactive)	60.7 µM (inactive)	36.4 µM (inactive)	> 100	29.4 µM (inactive)	> 100 µM (inactive)	17 µM (inactive)	39.8 µM (inactive)	16.9 µM (inactive)	26.6 µM (inactive)	–	17.7 µM (inactive)	33.9 µM (inactive)	–
Nc1nc2c(N)cc(C(F)(F)F)cc2nc1-c1ccccc1	4 µM (inactive)	> 100 µM (inactive)	> 100 µM (inactive)	> 100 µM (inactive)	> 100 µM (inactive)	1.17 µM (inactive)	> 100 µM (inactive)	> 100	> 100 µM (inactive)	> 100 µM (inactive)	> 100 µM (inactive)	> 100 µM (inactive)	> 100 µM (inactive)	> 100 µM (inactive)	–	> 100 µM (inactive)	> 100 µM (inactive)	> 100 µM (inactive)
CC(C)(C)OC(=O)N[C@H]1CC(=O)c2ccccc2N(CC(=O)O)C1=O	> 100 µM (inactive)	> 100 µM (inactive)	> 100 µM (inactive)	> 100 µM (inactive)	> 100 µM (inactive)	> 100 µM (inactive)	> 100 µM (inactive)	> 100	> 100 µM (inactive)	> 100 µM (inactive)	> 100 µM (inactive)	> 100 µM (inactive)	> 100 µM (inactive)	–	–	> 100 µM (inactive)	> 100 µM (inactive)	> 100 µM (inactive)
CC(=O)O[C@]12CCC[C@H]1C1(O)C(O)CCC[C@H]12 (stereo not given in full)	> 100 µM (inactive)	> 100 µM (inactive)	> 100 µM (inactive)	–	> 100 µM (inactive)	> 100 µM (inactive)	> 100 µM (inactive)	> 100	> 100 µM (inactive)	> 100 µM (inactive)	> 100 µM (inactive)	> 100 µM (inactive)	> 100 µM (inactive)	> 100 µM (inactive)	> 100 µM (inactive)	> 100 µM (inactive)	> 100 µM (inactive)	> 100 µM (inactive)
COC(CN1C=C(Sc2ccccc2)CC1)OC	43.3 µM (inactive)	29.6 µM (inactive)	24.8 µM (inactive)	26.4 µM (inactive)	31 µM (inactive)	15.6 µM (inactive)	29.7 µM (inactive)	37.7	30.8 µM (inactive)	37 µM (inactive)	23.8 µM (inactive)	47.3 µM (inactive)	31.8 µM (inactive)	–	21.7 µM (inactive)	34.8 µM (inactive)	19.5 µM (inactive)	19.4 µM (inactive)
CCc1cccc(C(C)C)c1NC(=O)C(=O)C1C(=O)NC(=O)NC1=O	> 100 µM (inactive)	> 100 µM (inactive)	> 100 µM (inactive)	> 100 µM (inactive)	> 100 µM (inactive)	> 100 µM (inactive)	> 100 µM (inactive)	> 100	> 100 µM (inactive)	> 100 µM (inactive)	> 100 µM (inactive)	> 100 µM (inactive)	> 100 µM (inactive)	> 100 µM (inactive)	> 100 µM (inactive)	> 100 µM (inactive)	> 100 µM (inactive)	–
CC1CC(=O)C(C(O)CC2CC(=O)N(c3ccccc3)C(=O)C2)C(C)C1 (stereo not given)	> 100 µM (inactive)	> 100 µM (inactive)	> 100 µM (inactive)	> 100 µM (inactive)	> 100 µM (inactive)	> 100 µM (inactive)	> 100 µM (inactive)	–	> 100 µM (inactive)	> 100 µM (inactive)	> 100 µM (inactive)	> 100 µM (inactive)	> 100 µM (inactive)	> 100 µM (inactive)	> 100 µM (inactive)	> 100 µM (inactive)	> 100 µM (inactive)	–
CCCCCCCCOCC(CO)OCCCCCCCC (stereo not given)	–	19.3 µM (inactive)	17.6 µM (inactive)	–	19.2 µM (inactive)	19 µM (inactive)	15 µM (inactive)	15.9	18.9 µM (inactive)	> 100 µM (inactive)	–	21.6 µM (inactive)	20.1 µM (inactive)	17.3 µM (inactive)	21.7 µM (inactive)	21.3 µM (inactive)	16.3 µM (inactive)	–
O=C(CSc1nc(-c2ccccc2)c(-c2ccccc2)[nH]1)NNC(=S)Nc1ccccc1	0.414 µM (active)	46.7 µM (inactive)	71 µM (inactive)	> 100 µM (inactive)	> 100 µM (inactive)	22.8 µM (inactive)	> 100 µM (inactive)	> 100	> 100 µM (inactive)	> 100 µM (inactive)	> 100 µM (inactive)	> 100 µM (inactive)	0.277 µM (active)	> 100 µM (inactive)	27.6 µM (inactive)	> 100 µM (inactive)	49.9 µM (inactive)	> 100 µM (inactive)
COC(=O)C(Cc1cc(OC)c(OC)c(OC)c1)c1ccc(OC)cc1 (stereo not given)	> 100 µM (inactive)	> 100 µM (inactive)	79.3 µM (inactive)	> 100 µM (inactive)	> 100 µM (inactive)	95.5 µM (inactive)	> 100 µM (inactive)	> 100	> 100 µM (inactive)	–	> 100 µM (inactive)	> 100 µM (inactive)	> 100 µM (inactive)	> 100 µM (inactive)	44.7 µM (inactive)	> 100 µM (inactive)	> 100 µM (inactive)	–
